Results published in patent US6632829B2, “Sulfonamides and derivatives thereof that modulate the activity of endothelin” (Texas Biotechnology Corp., priority 1996, dated 2003).

Experiments:
[1] = Oral half-life and peak plasma levels; assay type: in vivo
Text: As used herein, bioavailability refers to the rate and extent of absorption. Methods for determining bioavailability are well known to those of skill in the art. For example, bioavailability of any of the compounds described herein can be determined empirically by administration of the compound to an animal, followed by taking blood samples over time and measuring the blood concentration of the compound. In vivo half life (t1/2) is defined as the time it takes for the concentration of the compound in the blood to be reduced by one-half. Estimations of the area under the curve for intravenous administration can be used to estimate the area under the curve for oral administration, ylelding bioavailability data. See, e.g., Milo Gibal (1991) Biopharmaceutics and Pharmacology, 4th edition (Lea and Sediger).
Table 2 lists oral half-life, bioavailability, and in vivo activity of selected exemplary compounds. The in vivo activity was measured in a pulmonary hypertension model and is a measure of the activity of the compounds at selected dosages.

[2] = test system: Pulmonary Hypertension model; assay: Pulmonary Hypertension model; assay type: in vivo, rat; set-up: key: ++: effective at 5 mg/kg; −: no effect at 5 mg/kg; +: effective at 15 mg/kg
Experimental: As used herein, efficacy refers to the maximal effect that can be produced by a compound. Efficacy can be determined by methods known to those of skill in the art. For example, it can be determined by the properties of the compound and its receptor-effector system and is reflected in the plateau of the concentration-effect curve. In vivo efficacy refers to efficacy which is determined in an animal model. For example, in vivo efficacy of the compounds described herein can be determined by hypoxia-induced pulmonary hypertension in rat. See, e.g., DiCarlo et al. (1995) Am. J. Physiol. 269:[…]-[…]. Table 2 lists oral half-life, bioavailability, and in vivo activity of selected exemplary compounds. The in vivo activity was measured in a pulmonary hypertension model and is a measure of the activity of the compounds at selected dosages.

[3] = test system: hypertensive rat model; assay: Deoxycorticosterone acetate (DOCA)-salt hypertensive rat model; assay type: in vivo
Experimental: Selected compounds disclosed herein have been tested for activity in the deoxycorticosterone acetate (DOCA)-salt hypertensive rat model. To perform these tests, silastic MDX4-4210 elastomer implants containing 47 mg (DOCA) were prepared according to the method of Ornmsbee et al. ((1973) the J. Pharm. Sci. 62:255-257). Briefly, DOCA is incorporated into silicon rubber implants for sustained release. To prepare the implants the DOCA is incorporated into unpolymerized silicone rubber, catalyst is added and the mixture is cast in a hemicylindrical shape.
Sprague Dawley rats (7-8 weeks old) were unilaterally nephrectomized under ketamine anesthesia and a DOCA-implant was placed on the left lateral dorsal abdomen of the animal. The rats were allowed to recover for three weeks. During recovery they were permitted free access to normal rat chow and 0.9% NaCl drinking solution in place of drinking water. The rats develop hypertension within 3 weeks. […]
On the day of experimentation, catheters were inserted under brevital anesthesia into the right femoral artery for measurement of blood pressure, and into the right femoral vein for administration of a selected compound. The animals were placed in a restrainer and allowed to recover for a minimum of 60 min or until a steady mean arterial blood pressure was recorded. […] Blood pressure was recorded continuously for a further 10 hrs.

[4] = molecular target: T1, human ETB receptor (Homo sapiens, UniProt P24530); assay: Endothelin binding inhibition, Binding Test #2: competition with 125I-ET-1 for ETB receptors on transfected COS7 cell membranes; conditions: incubation at 24° C. (values marked †)
T1 construct: expressed in transfected cells; host or cells: COS7 cells
T1 sequence (P24530 27-442): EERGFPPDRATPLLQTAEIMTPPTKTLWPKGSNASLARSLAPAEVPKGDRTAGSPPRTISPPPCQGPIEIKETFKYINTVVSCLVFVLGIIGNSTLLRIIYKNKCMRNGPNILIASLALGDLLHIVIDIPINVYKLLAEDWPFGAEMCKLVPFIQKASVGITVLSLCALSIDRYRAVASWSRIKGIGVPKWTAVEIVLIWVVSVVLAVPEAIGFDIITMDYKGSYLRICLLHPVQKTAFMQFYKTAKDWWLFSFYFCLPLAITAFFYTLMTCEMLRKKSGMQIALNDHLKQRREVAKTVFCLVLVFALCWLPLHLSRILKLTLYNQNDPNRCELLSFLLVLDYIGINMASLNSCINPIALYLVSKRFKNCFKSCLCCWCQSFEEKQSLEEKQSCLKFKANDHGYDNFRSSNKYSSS
How it was run: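 Membranes from COS7 cells transfected with human ETB receptor, prepared in HEPES pH 7.4 with aprotinin, MnCl2/DNase treatment at 37° C for 30 min. Test compounds compete with 125I-labeled ET-1 for receptor binding; membrane used at 1 μg/50 μL binding buffer.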

- POt½ in Rat ([1]; oral): 7 h
- Peak Plasma Levels ([1]; rat, in vivo): 5.6 µg/mL
- IC50 [4]: 18.7 µM
SMILES: Cc1cc(C)c(NC(=O)c2sccc2S(=O)(=O)Nc2onc(C)c2Cl)c(C)c1O [N-(4-chloro-3-methyl-5-isoxazolyl)-2-(3-hydroxy-2,4,6-trimethylphenylaminocarbonyl)thiophene-3-sulfonamide]
- in vivo Efficacy [2]: ++
- decrease of blood pressure [3]: effective in decreasing blood pressure
